The source of these data is patent US20030049807A1, “Micro-organism possessing enantioselective and regioselective nitrile hydratase/amidase activities” (priority 2001, published 2003).

In test [1] the test system is nitrile-hydratase/amidase activity of the wild type strain. The experiment in a line: Nitrile-hydratase/amidase activity of the wild type parent strain after induction with valeronitrile. The test is classed as cell-based, Agrobacterium radiobacter. As to conditions: wild type strain sub-cultured with butyronitrile, induced with valeronitrile. How it is done: The parent strain, characterised as Agrobacterium radiobacter, was isolated from a crude bacterial extract with antibiotic activity. In order to determine activity towards nitrilic substrates, it was sub-cultured in medium containing butyronitrile and after some passages and induction with valeronitrile, a weak nitrile-hydratase/amidase activity was measured on benzoylphenylpropionitrile (BPN) of the wild type strain as such selected. To obtain a semi-constitutive strain, an aliquot of wild type parent strain was subjected to a treatment of mutagenesis, constituted by two treatment cycles with ethylmethanesulphonate, one cycle with nitrosoguanidine and two of mutagenesis with UV irradiation.

In test [2] the test system is nitrile hydratase/amidase activity of bacterial pellet of strain NCIMB 41108. The test can be described thus: Enzymatic activity of the whole-cell biocatalyst (wet bacterial pellet) towards nitrile/amide substrates, HPLC or GC. The test is classed as cell-based, Agrobacterium radiobacter 30″60. The conditions noted are these: 30° C.; for enzymatic activity: 50 mg substrate, 250 mg wet pellet. The protocol:
The enzymatic activity was evaluated using a bacterial pellet obtained after fermentation for 48 hours in fermentation medium as described below. Briefly, the culture was amplified from a single colony to begin with in a small volume of inoculating medium and then, for preparative purposes, in 100 ml of fermentation medium.
Fermentation medium: MgSO4 (0.5 g l^−1), ,CaCl2.6H2O (0.1 g l^−1), FeSO4 (0.4 g l^−1), CoCl2 (0.1 g l^−1), MnSO4 (0.01 g l^−1), (NH4)2SO4 (5 g l^−1), Yeast Extract (10 g l^31 1). The inducer, or the inducers, were added to the fermentation medium alone or in combination, sterilely, to a final concentration comprised of between 0.5-5 g/L. In particular, if not stated differently, valeronitrile, N-butyronitrile, isobutyronitrile and ε-caprolactam were used at a concentration respectively of 2.5 g/l and added in a single solution at the start of the process. To measure the basal activity of the strain 41108, no inducer was added to the fermentation medium.
Inoculation. […]
Reaction scheme. […] At preset time intervals, aliquots of the mixture were sterilely removed with a syringe, using a Minisart RC 25 filter 0,22 μm (Sartorius, Germany) and directly analysed by HPLC. The enzymatic activity was determined by the mean activity measured in the initial, linear phase of the conversion curve, relative to the wet weight of the bacterial paste. […]
Evaluation of the conversion percentages and of the enantiomeric excess. The percentage conversion of the substrate was measured by reverse phase HPLC using a reverse phase column of dimensions: 250×4.6 mm; 10 μm (Lichrosorb 10 RP18), and phosphate buffer at various percentages (10 mM, pH 2.5 e 3.5) with acetonitrile at 40 or 50% depending on the molecule to be detected. […] The e.e. values of the reaction products obtained from benzoylphenylpropionitrile were determined by HPLC fitted with a chiral column (dimensions: 100×4 mm; Chromtech AGP-column) and phosphate buffer used as eluent (10 mM, pH 7.0) with isopropanol (1%, v/v) and dimethyloctylamine (0,02%, v/v). […]

Regarding `CC(C#N)c1cccc(C(=O)c2ccccc2)c1` (racemic) [benzoylphenylpropionitrile, 2-(3-benzoylphenyl)propionitrile], in test [1], the nitrile-hydratase/amidase activity entry is on record as “weak”.

As to `CC(C#N)c1ccc(-c2ccccc2)c(F)c1` (stereo not drawn) [2-fluoro-α-methyl[1,1′-diphenyl]-4-acetonitrile], the enzymatic activity in test [2] (pellet induced with valeronitrile 0,2%, 24 hours) is 0.26 IU g^−1 of wet cells.

In the case of `CC(C#N)c1cccc(Oc2ccccc2)c1` (stereo not drawn) [α-methyl-3-phenoxibenzen-acetonitrile], the enzymatic activity in test [2] (pellet induced with valeronitrile 0,25%, 1 hour) is 5.23 IU g^−1 of wet cells.

With `CC(C#N)c1ccccc1` (stereo not drawn) [α-methylbenzyl cyanide], the “rate of transformation, times higher” value in test [2] (pellet induced with valeronitrile and ε-caprolactam 0,25%, comparator not given) is listed as “approximately 20 times”.
